Values of other authors as cited in patent publication US20040101542A1, “Skin care composition with retinyl ester as vitamin a propionate retinyl palmitate d-alpha tocopherol rice amino acids and liposomes and method of application” (priority 2003, published 2004).

Conditions: at 24 hours

CC1=C(/C=C/C(C)=C/C=C/C(C)=C/C(=O)O)C(C)(C)CCC1 [retinoic acid]
uptake and distribution in the deeper skin strata, liposomal formulations versus solutions or emulsions: 3-4 times higher
